# Tests used:
# [1] = tested on: root weevil, Diaprepes abbreviatus; assay: Root weevil larvae held 30 minutes in concentration series of compounds; format: in vivo; conditions: for Mortality of larvae: 30 minutes immersion, five larvae; for toxicity to larvae as judged: 0.1 to 5.0%, judged at 24 hours from black residue and activity
# Procedure: The criterion for toxicity with these larvae is the lack of nipping behavior and its consequent black residue from blood loss and the lack of spontaneous movement.
# Concentration Series. With the results from the time series above, larvae were held in different concentrations of STMB for 30 minutes. After 30 minutes, solutions were poured off and the trays wiped dry. Assessments were made at 24 or 48 hours with a few assessments at 72 hours dependent on effects. Treatments were: water or carbonated water as controls, and 0.1, 0.5, 1.0, 2.0, 3.0, 4.0 and 5.0% concentrations in either distilled water or carbonated water. Five larvae were used for each control and treatment. Pupae were not used in this assessment.
# The use of carbonated water appeared not to increase the efficacy of this treatment. After 48 hours, there appeared to be no difference between 5% STMB in water and 5% STMB in carbonated water. […] In general, 48 hours should be enough for this assessment. Lack of toxicity or high toxicity should show in the first 24 hours.
# [2] = Solubility of the test preparations in water (observations); format: physicochemical
# M. javanica = conditions: tomato root galling; cited from earlier work
# Meloidognye hapla = conditions: cited from earlier work; for toxicity to nematodes: in vitro; for kill of second stage juveniles: 50 ppm, 24 hours
compound,measurement,setting,value
"COC(=O)CCC(=O)OC [106-65-0, butanedioic acid, dimethyl ester]",Mortality of larvae,"[1]; 0.1%, 24 hours",2
same,toxicity to larvae as judged,[1],non-toxic
same,Mortality of larvae,"[1]; 1.0%, 24 hours",2
same,Mortality of larvae,"[1]; 3.0%, 24 hours",1
same,Mortality of larvae,"[1]; 5.0%, 24 hours",1
same,solubility of preparation,[2]; 0.1% in water,soluble
same,solubility of preparation,[2]; 1.0% in water,just soluble
same,solubility of preparation,[2]; 3.0% in water,not soluble
same,solubility of preparation,[2]; 5.0% in water,not soluble
"COC(=O)CCCCC(=O)OC [627-93-0, Dimethyl hexanedioate]",Mortality of larvae,"[1]; 0.1%, 24 hours",2
same,toxicity to larvae as judged,[1],non-toxic
same,Mortality of larvae,"[1]; 1.0%, 24 hours",1
same,Mortality of larvae,"[1]; 3.0%, 24 hours",2
same,Mortality of larvae,"[1]; 5.0%, 24 hours",3
same,solubility of preparation,[2]; 0.1% in water,soluble
same,solubility of preparation,[2]; 1.0% in water,not completely soluble
same,solubility of preparation,[2]; 3.0% in water,not completely soluble
same,solubility of preparation,[2]; 5.0% in water,not completely soluble
"COC(=O)CCCC(=O)OC [1119-40-0, pentanedioic acid, dimethyl ester]",Mortality of larvae,"[1]; 0.1%, 48 hours",3
same,Mortality of larvae,"[1]; 0.1%, 72 hours",3
same,Mortality of larvae,"[1]; 1.0%, 48 hours",1
same,Mortality of larvae,"[1]; 1.0%, 72 hours",2
same,Mortality of larvae,"[1]; 3.0%, 48 hours",0
same,Mortality of larvae,"[1]; 3.0%, 72 hours",0
same,Mortality of larvae,"[1]; 5.0%, 48 hours",1
same,Mortality of larvae,"[1]; 5.0%, 72 hours",2
same,survival of larvae after 30 minutes,[1]; at end of 30 minutes immersion,All larvae were alive
CCCCCCCCC(=O)OC [Methyl perlargonate],concentration producing reduced galling of plants,M. javanica,0.8 microliters/liter
CCCCCCCC/C=C\CCCCCCCC(=O)O [Oleic acid],toxicity to nematodes,Meloidognye hapla,relatively nontoxic
CCCCCCCCCC(=O)O [decanoic acid],kill of second stage juveniles,Meloidognye hapla,killed all
CCCCCCCC/C=C\CCCCCCCC(=O)[O-].[K+] [potassium oleate],toxicity to nematodes,Meloidognye hapla,relatively nontoxic
CCCCCCCCCCC(=O)O [undecanoic acid],kill of second stage juveniles,Meloidognye hapla,killed all
Polyoxyethylene 10 tridecylether [24938-91-8],Mortality of larvae,"[1]; 0.1%, 24 hours",0
same,Mortality of larvae,"[1]; 0.1%, 48 hours",0
same,Mortality of larvae,"[1]; 0.1%, 72 hours",0
same,Mortality of larvae,"[1]; 1.0%, 24 hours",2
same,Mortality of larvae,"[1]; 1.0%, 48 hours",2
same,Mortality of larvae,"[1]; 1.0%, 72 hours",2
same,Mortality of larvae,"[1]; 3.0%, 24 hours",0
same,Mortality of larvae,"[1]; 3.0%, 48 hours",0
same,Mortality of larvae,"[1]; 3.0%, 72 hours",0
same,Mortality of larvae,"[1]; 5.0%, 24 hours",0
same,Mortality of larvae,"[1]; 5.0%, 48 hours",3
same,Mortality of larvae,"[1]; 5.0%, 72 hours",3
glycol pelargonate,concentration producing reduced galling of plants,M. javanica,6.4 microliters/liter
